| SMILES | melting point |
| --- | --- |
| C[C@]12C[C@H]3CC[C@H]4C[C@@H](O)CC[C@H]4[C@@H]3C[C@@H]1CCC2=O | 175 to 177 °C |
| C[C@@]12CC[C@H](O)C[C@H]1CC[C@@H]1C[C@@]3(C)[C@@H](CC[C@@]34CO4)C[C@H]12 | 138 to 140 °C |
| C[C@]12C[C@H]3CC[C@@H]4C[C@@H](O)CC[C@@]4(C)[C@@H]3C[C@@H]1CC[C@@H]2C#N | 145 to 147 °C |
| C[C@@]12C[C@@H]3CC[C@H]4C[C@H](O)CC[C@@H]4[C@H]3C[C@H]1CC[C@]21CO1 | 165 to 167 °C |
| C[C@@]12C[C@@H]3CC[C@H]4C[C@H](O)CC[C@@H]4[C@H]3C[C@H]1CC[C@H]2C#N | 163 to 165 °C |
| CC(=O)[C@@H]1CC[C@@H]2C[C@H]3[C@@H](CC[C@H]4C[C@H](O)CC[C@@H]43)C[C@]21C | 128 to 130 °C |
| C[C@@]12CC[C@H](O)C[C@H]1CC[C@@H]1C[C@]3(C)C(C#N)=CC[C@H]3C[C@H]12 (stereo in doubt) | 170 to 172 °C |
| C[C@@]12C[C@@H]3CC[C@@H]4C[C@H](O)CC[C@@H]4[C@H]3C[C@H]1CCC2=O (stereo in doubt) | 174 to 176 °C |

Source: patent US9365502B2, “Neuroactive substituted cyclopenta[b]phenanthrenes as modulators for GABA type-A receptors” (priority 2013, dated 2016)
